Results published in patent US20040235939A1, “Synthesis of peloruside a and analogs thereof for use as antitumor agents” (priority 2003, published 2004).
Read-outs that look alike come from different tables or passages of the source.

What was measured:
HCT-15 = assay: SRB cytotoxicity assay, HCT-15; assay type: cell-based; details: Homo sapiens, HCT-15, Colon, read-out: GI50
Description: (§1) Cells were treated on Days 1, 3, 5, and 7 with 5 μL of media, vehicle, or drug. Peloruside A was resuspended in 0.1% DMSO and added to wells to a final concentration of 0.01, 0.1, 1, 10 or 100 nM. Taxol® (Sigma-Aldrich) was resuspended in 0.1% ethanol and added to cells to a final concentration of 0.1, 1, 10, 100, or 1000 nM.
(§2) The amount of surviving cells was measured using the sulforhodamine B (SRB) assay as previously described (Skehan et al., New colorimetric cytotoxicity assay for anticancer-drug screening. J. Natl. Cancer Inst., 1990. 82(13): p. 1107-12). Cells were fixed on Days 5, 7, and 9 (representing 4, 6, and 8 days of exposure to drug or control, respectively) with 50% (w/v) trichloroacetic acid for 1 hour at 4° C., rinsed thoroughly with water, and dried overnight. The dried cells were stained with 4% sulforhodamine B in 1% acetic acid, rinsed thoroughly and dried overnight. The bound dye was resuspended in 10 mM Tris and the absorbance was read at 492 nm. Percent growth inhibition (GI) was calculated as follows: %GI=(1−(absorbance sample/absorbance vehicle))×100. The absorbance value for each drug concentration and control represents the average of 6 replicates. The %GI was plotted against the log[drug] to generate the growth curves. The concentration of drug required to inhibit growth by 50% (GI50) was calculated for each time point.

DU-145 = assay: SRB cytotoxicity assay, DU-145; assay type: cell-based; details: Homo sapiens, DU-145, Prostate, read-out: GI50
Description: as §1, §2

HCT-116 = assay: SRB cytotoxicity assay, HCT-116; assay type: cell-based; details: Homo sapiens, HCT-116, Colon, read-out: GI50
Description: as §1, §2

NCI-H2887 = assay: SRB cytotoxicity assay, NCI-H2887; assay type: cell-based, human; details: NCl-H2887, Lung
Description: as §1, §2

BT-549 = assay: SRB cytotoxicity assay, BT-549; assay type: cell-based; details: Homo sapiens, BT-549, Breast, read-out: GI50
Description: as §1, §2

Mia PaCa-2 = assay: SRB cytotoxicity assay, Mia PaCa-2; assay type: cell-based; details: Homo sapiens, Mia PaCa-2, Pancreas, read-out: GI50
Description: as §1, §2

PC-3 = assay: SRB cytotoxicity assay, PC-3; assay type: cell-based; details: Homo sapiens, PC-3, Prostate, read-out: GI50
Description: as §1, §2

SK-MEL-5 = assay: SRB cytotoxicity assay, SK-MEL-5; assay type: cell-based; details: Homo sapiens, SK-MEL-5, Melanoma, read-out: GI50
Description: as §1, §2

LoVo = assay: SRB cytotoxicity assay, LoVo; assay type: cell-based; details: Homo sapiens, Colon, read-out: GI50
Description: as §1, §2

[1] = system: BSC-1 (Monkey Kidney epithelial) cells; assay: Immunofluorescent staining of tubulin in BSC-1 cells; assay type: cell-based; details: 200 nM of Taxol® or 50 nM of Peloruside A
NCI-H1395 = assay: SRB cytotoxicity assay, NCI-H1395; assay type: cell-based, human; details: NCl-H1395, Lung
Description: as §1, §2

CAKI-1 = assay: SRB cytotoxicity assay, CAKI-1; assay type: cell-based; details: Homo sapiens, CAK1-1, Renal, read-out: GI50
Description: as §1, §2

Hep-G2 = assay: SRB cytotoxicity assay, Hep-G2; assay type: cell-based; details: Homo sapiens, Hep G2, Liver, read-out: GI50
Description: as §1, §2

SK-OV-3 = assay: SRB cytotoxicity assay, SK-OV-3; assay type: cell-based; details: Homo sapiens, SK-OV-3, Ovarian, read-out: GI50
Description: as §1, §2

ptx22 cells = assay: Cell Titer-Glo cell viability, Taxol-resistant ptx22 cells; details: Homo sapiens, 48 h, read-out: concentration to reduce cell viability to approximately 50%
Description: (§3) These cell lines have specific amino acid mutations in tubulin that prevent Taxol®-binding. […] Synthetic (+)-Peloruside A was used for the present example.
(§4) 1A9, ptx10 and ptx22 cells were plated in 96-well plates to approximately 50% confluency. On the next day, Taxol® or Peloruside A was added to each well and incubated for 48 hours. A final concentration of 1, 2, 3, 4, 5, 8, 10, 20, 30, 50, 100, 300, 500, or 1000 nM of Taxol® was used. A final concentration of 10, 20, 30, 40, 50 or 70 nM of Peloruside A was used. Cell viability was measured using the Cell Titer-Glo Luminescent Cell Viability Assay (Promega). FIGS. 80-82 show bar graphs of cell viability at various concentrations of Peloruside A and Taxol®.

NCI-H23 = assay: SRB cytotoxicity assay, NCI-H23; assay type: cell-based; details: Homo sapiens, NCl-H23, Lung, read-out: GI50
Description: as §1, §2

SK-HEP-1 = assay: SRB cytotoxicity assay, SK-HEP-1; assay type: cell-based; details: Homo sapiens, SK-HEP-1, Liver, read-out: GI50
Description: as §1, §2

A498 = assay: SRB cytotoxicity assay, A498; assay type: cell-based; details: Homo sapiens, A498, Renal, read-out: GI50
Description: as §1, §2

Capan-1 = assay: SRB cytotoxicity assay, Capan-1; assay type: cell-based; details: Homo sapiens, Capan-1, Pancreas, read-out: GI50
Description: as §1, §2

MDA-MB-231 = assay: SRB cytotoxicity assay, MDA-MB-231; assay type: cell-based; details: Homo sapiens, MB-MDA-231, Breast, read-out: GI50
Description: as §1, §2

ptx10 cells = assay: Cell Titer-Glo cell viability, Taxol-resistant ptx10 cells; details: Homo sapiens, PTX10, 48 h, read-out: concentration to reduce cell viability to approximately 50%
Description: as §3, §4

Compound `CC(=O)O[C@H]1C(=O)[C@@]2(C)[C@H]([C@H](OC(=O)c3ccccc3)[C@]3(O)C[C@H](OC(=O)[C@H](O)[C@@H](NC(=O)c4ccccc4)c4ccccc4)C(C)=C1C3(C)C)[C@]1(OC(C)=O)CO[C@@H]1C[C@@H]2O` [Paclitaxel, paclitaxel, reference compound] has a GI50 (HCT-15; 96 h, 4 Days) of 49.1 nM, a GI50 (HCT-15; 144 h, 6 Days) of 24 nM and a GI50 (HCT-15; 192 h, 8 Days) of 26.7 nM. The GI50 (DU-145; 96 h, 4 Days) was 0.54 nM, the GI50 (DU-145; 144 h, 6 Days) was 0.53 nM and the GI50 (DU-145; 192 h, 8 Days) was 0.49 nM. For the same compound, the GI50 (HCT-116; 96 h, 4 Days) was 1 nM, the GI50 (HCT-116; 144 h, 6 Days) was 0.58 nM and the GI50 (HCT-116; 192 h, 8 Days) was 0.3 nM. The GI50 (NCI-H2887; Homo sapiens, NCI-H2887, 144 h, 6 Days, read-out: GI50) was 643 nM, the GI50 (NCI-H2887; Homo sapiens, NCI-H2887, 192 h, 8 Days, read-out: GI50) was 6.16 nM and the GI50 (NCI-H2887; 4 Days) was 4 Days: Resistant. It also gave a GI50 (BT-549; 96 h, 4 Days) of 1.76 nM, a GI50 (BT-549; 144 h, 6 Days) of 1.2 nM and a GI50 (BT-549; 192 h, 8 Days) of 0.18 nM. It also gave a GI50 (Mia PaCa-2; 96 h, 4 Days) of 0.73 nM, a GI50 (Mia PaCa-2; 144 h, 6 Days) of 0.53 nM and a GI50 (Mia PaCa-2; 192 h, 8 Days) of 0.27 nM. The GI50 (PC-3; 96 h, 4 Days) was 0.78 nM, the GI50 (PC-3; 144 h, 6 Days) was 0.47 nM and the GI50 (PC-3; 192 h, 8 Days) was 0.27 nM. It also gave a GI50 (SK-MEL-5; 96 h, 4 Days) of 0.82 nM, a GI50 (SK-MEL-5; 144 h, 6 Days) of 1 nM and a GI50 (SK-MEL-5; 192 h, 8 Days) of 0.27 nM. It also gave a GI50 (LoVo; 96 h, 4 Days) of 1.91 nM, a GI50 (LoVo; 144 h, 6 Days) of 1.95 nM and a GI50 (LoVo; 192 h, 8 Days) of 3.92 nM. The “formation of a bipolar spindle” value [1] was “the bipolar spindle does not form”, the GI50 (NCI-H1395; Homo sapiens, NCI-H1395, 144 h, 6 Days, read-out: GI50) was 6.81 nM and the GI50 (NCI-H1395; Homo sapiens, NCI-H1395, 192 h, 8 Days, read-out: GI50) was 5.27 nM. For the same compound, the GI50 (NCI-H1395; 4 Days) was 4 Days: Resistant, the GI50 (CAKI-1; CAKI-1, 96 h, 4 Days) was 4.52 nM and the GI50 (CAKI-1; CAKI-1, 144 h, 6 Days) was 1.21 nM. The GI50 (CAKI-1; CAKI-1, 192 h, 8 Days) was 1.17 nM, the GI50 (Hep-G2; HepG2, 96 h, 4 Days) was 2.82 nM and the GI50 (Hep-G2; HepG2, 144 h, 6 Days) was 0.47 nM. The GI50 (Hep-G2; HepG2, 192 h, 8 Days) was 0.63 nM, the GI50 (SK-OV-3; 144 h, 6 Days) was 2.21 nM and the GI50 (SK-OV-3; 192 h, 8 Days) was 1.07 nM. For the same compound, the IC50 (ptx22 cells) was > 100 nM, the GI50 (NCI-H23; NCI-H23, 96 h, 4 Days) was 1 nM and the GI50 (NCI-H23; NCI-H23, 144 h, 6 Days) was 1.12 nM. It also gave a GI50 (NCI-H23; NCI-H23, 192 h, 8 Days) of 0.18 nM, a GI50 (SK-HEP-1; SK-HEP1, 96 h, 4 Days) of 5.6 nM and a GI50 (SK-HEP-1; SK-HEP1, 144 h, 6 Days) of 2.85 nM. The GI50 (SK-HEP-1; SK-HEP1, 192 h, 8 Days) was 0.45 nM, the GI50 (A498; 96 h, 4 Days) was 46.1 nM and the GI50 (A498; 144 h, 6 Days) was 9.75 nM. For the same compound, the GI50 (A498; 192 h, 8 Days) was 7.57 nM, the GI50 (Capan-1; 96 h, 4 Days) was 5.68 nM and the GI50 (Capan-1; 144 h, 6 Days) was 0.91 nM. The GI50 (Capan-1; 192 h, 8 Days) was 1.43 nM, the GI50 (MDA-MB-231; MDA-MB-231, 144 h, 6 Days) was 0.09 nM and the GI50 (MDA-MB-231; MDA-MB-231, 192 h, 8 Days) was 0.01 nM. The IC50 (ptx10 cells) was > 100 nM.
